# Laboratory results published in ChEMBL document CHEMBL4402534, “Dihydroorotate dehydrogenase inhibitors in anti-infective drug research” (Eur J Med Chem, 2019).
# Columns and labels:
# [1] = target: T1, Dihydroorotate dehydrogenase (quinone), mitochondrial (Homo sapiens, UniProt Q02127); test: Inhibition of human DHODH
# [2] = Inhibition of Babesia bovis DHODH
# [3] = Selectivity index, ratio of IC50 for human DHODH to IC50 for Schistosoma mansoni DHODH
# [4] = Inhibition of Plasmodium falciparum DHODH
# [5] = Inhibition of Helicobacter pylori DHODH
# [6] = system: Helicobacter pylori; test: Antibacterial activity against Helicobacter pylori by whole cell-based assay; type: functional
# [7] = Inhibition of Escherichia coli DHODH
# [8] = Inhibition of Enterococcus faecalis DHODH
# [9] = target: T1, Dihydroorotate dehydrogenase (quinone), mitochondrial; test: Inhibition of DHODH (unknown origin)
# [10] = system: Yellow fever virus; test: Antiviral activity against Yellow fever virus infected in human A549 cells assessed as reduction in virus replication; type: functional, organism-based
# [11] = system: West Nile virus; test: Antiviral activity against West Nile virus infected in human A549 cells assessed as reduction in virus replication; type: functional, organism-based
# [12] = system: Dengue virus; test: Antiviral activity against Dengue virus infected in human A549 cells assessed as reduction in virus replication; type: functional, organism-based
# [13] = system: Western equine encephalitis virus; test: Antiviral activity against Western equine encephalomyelitis virus infected in human A549 cells assessed as reduction in virus replication; type: functional, organism-based
# [14] = system: Vesicular stomatitis virus; test: Antiviral activity against Vesicular stomatitis virus infected in human A549 cells assessed as reduction in virus replication; type: functional, organism-based
# [15] = system: Cytomegalovirus; test: Antiviral activity against Cytomegalovirus; type: functional, organism-based; conditions: Human betaherpesvirus 5
# [16] = Antiviral activity against Human herpesvirus 6 type A; type: functional, Human herpesvirus 6A
# [17] = system: Human alphaherpesvirus 3; test: Antiviral activity against Varicella zoster virus; type: functional, organism-based
# [18] = system: Human alphaherpesvirus 1; test: Antiviral activity against Herpes simplex viruses type 1; type: functional, organism-based
# [19] = system: Human alphaherpesvirus 2; test: Antiviral activity against Herpes simplex viruses type 2; type: functional, organism-based
# [20] = Inhibition of Aspergillus fumigatus DHODH
# [21] = system: Dengue virus; test: Antiviral activity against Dengue virus assessed as reduction in virus replication; type: functional, organism-based
# T1 sequence (Q02127 whole entry): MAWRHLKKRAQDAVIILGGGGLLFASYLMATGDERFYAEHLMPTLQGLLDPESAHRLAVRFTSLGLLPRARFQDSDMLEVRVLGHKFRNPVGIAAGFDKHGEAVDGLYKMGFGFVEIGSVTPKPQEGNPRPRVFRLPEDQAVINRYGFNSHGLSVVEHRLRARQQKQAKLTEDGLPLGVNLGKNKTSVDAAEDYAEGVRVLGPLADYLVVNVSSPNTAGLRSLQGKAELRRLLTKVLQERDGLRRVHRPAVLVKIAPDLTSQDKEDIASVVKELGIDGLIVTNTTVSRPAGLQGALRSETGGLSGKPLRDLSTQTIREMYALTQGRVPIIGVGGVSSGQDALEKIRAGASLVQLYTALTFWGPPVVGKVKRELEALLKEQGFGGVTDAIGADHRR
structure (smiles),measurement,setting,value
O=C1C(O)=C([C@H]2CC[C@H](c3ccc(Cl)cc3)CC2)C(=O)c2ccccc21 [ATOVAQUONE],IC50,[1],2600 nM
same,IC50,[2],2.38 nM
same,Ratio IC50,[3],6
Cc1nc2c(OC(F)F)cccc2n1-c1ccc(C(=O)NC2CC2)s1,IC50,[4],220 nM
Cc1cc(Nc2ccc(S(F)(F)(F)(F)F)cc2)n2ncnc2n1,IC50,[4],130 nM
Cc1nc2cc(OC(F)(F)F)ccc2n1-c1ccc(C(=O)NC2CC2)s1,IC50,[4],220 nM
Cc1nc2c(C#N)cccc2n1-c1ccc(C(=O)NC2CC2)s1,IC50,[4],50 nM
COc1ccc(-n2nc(C(=O)NCc3ccccc3)cc2C(=O)Nc2ccc(C(=O)N3CCCC3)cc2)cc1,Ki,[5],26 nM
same,MIC,[6],3 µg/mL
Cc1oncc1C(=O)Nc1ccc(C(F)(F)F)cc1 [LEFLUNOMIDE],IC50,[2],52400 nM
O=c1sn(-c2ccccc2)c(=O)n1-c1ccc(F)cc1,IC50,[1],> 100000 nM
same,IC50,[7],840 nM
same,IC50,[8],75 nM
Cc1[nH]c2ccc(-c3nnc(SCC(=O)N4CCCC4)o3)cc2c1C,IC50,[9],1130 nM
Cc1c(-c2ccc(-c3ccccc3F)cc2)nc2ccc(F)cc2c1C(=O)O [BREQUINAR],EC50,[10],78 nM
same,EC50,[11],78 nM
same,EC50,[12],78 nM
same,EC50,[13],78 nM
same,EC50,[14],78 nM
same,IC50,[2],52400 nM
O=C(Nc1c(F)c(F)c(-c2cccc(OC(F)(F)F)c2)c(F)c1F)c1ccsc1C(=O)O [KIO-100],IC50,[15],1500 nM
same,IC50,[16],1.55 nM
same,IC50,[17],3.55 nM
same,IC50,[18],> 10000 nM
same,IC50,[19],> 10000 nM
Cc1cc(-c2ccccc2)c(C(=O)C(=O)Nc2ccc(N3CCN(c4ncc(F)cn4)CC3)cc2)n1C [OLOROFIM],IC50,[1],> 100000 nM
same,IC50,[20],44 nM
O=C(N[C@@H]1CCCc2c1[nH]c1ccc(Cl)cc21)c1ccccn1,Ki,[1],203 nM
same,IC50,[21],13.3 nM
O=C(NCc1ccccc1)c1cc(C(=O)Nc2ccccc2)n(-c2ccc(Cl)cc2)n1,Ki,[5],4 nM
same,MIC,[6],0.125 µg/mL
COc1ccc(-n2nc(C(=O)Nc3ccccc3O)cc2C(=O)Nc2ccc(C(=O)N3CCCC3)cc2)cc1,Ki,[5],50 nM
COC(=O)c1c(-c2c(Cl)cccc2Cl)noc1-c1cnn(-c2cccc(Cl)c2)c1C(F)(F)F,EC50,[10],2.4 nM
same,EC50,[11],2.4 nM
same,EC50,[12],2.4 nM
same,EC50,[13],2.4 nM
same,EC50,[14],2.4 nM
same,IC50,[1],103 nM
O=C(NCc1cccnc1)c1cc(C(=O)Nc2ccccc2)n(-c2ccc(Cl)cc2)n1,Ki,[5],4 nM
same,MIC,[6],0.25 µg/mL
CSC(=NCn1c(C/C=C(\C)CCC=C(C)C)c(C)c(=O)c2ccccc21)SC,IC50,[5],11100 nM
C[C@H](c1ccc(-c2ccccc2)cc1)N(C)C(=O)CSc1nnnn1-c1ccc(O)cc1,IC50,[9],41000 nM
CCCCCCCCc1[nH]c2ccccc2c(=O)c1C,IC50,[5],4550 nM
